Bounds are passed on as bounds.

What all share (assay type): cell-based
Test [1] relates to H69-GLI2 versus H69-wt SCLC cells. In words: Drug dose response, cell viability after 72 hours. The conditions noted are these: single agent, experiment H69-GLI1 and H69-GLI2 versus H69-wt (FIG. 1A/1B). As to the method:
(§1) (A) Drug-dose response experiment in H69-GLI1 and H69-GLI2 versus H69-wt for cisplatin. […] (C) Drug-dose response experiment in H69-GLI1 versus H69-wt for cisplatin. Methods. Two SCLC cell lines, H69 and H526, were transduced with a GLI1 over-expressing (o/e) vector (Kasper et al, 2007) to create two lines expressing the gene: H69-GLI1 and H526-GLI1. GLI1 expression was verified by qRT-PCR. Cellular proliferation was measured over a 96-hour period. To study the drug dose response, GLI1 o/e and parental lines were treated with single-agent or combination dosing of cisplatin and etoposide, and cell viability was assessed after 72 hours. Relative GLI1 expression was compared with cisplatin response in four additional SCLC cell lines (H146, […], […]). Gene expression analysis was performed on H69-GLI1 and H69 parental cells, with two replicates for each, using Agilent (Agilent Technologies, Santa Clara, Calif.) 44K expression arrays. Data was normalized and analyzed using Genespring software (Agilent Technologies, Santa Clara, Calif.).

The subject of test [2] is H69-GLI1 versus H69-wt SCLC cells. The test can be described thus: Drug dose response, cell viability after 72 hours, GLI1 over-expressing vs parental line. As to the method:
as §1

The test system of test [3] is H526-GLI1 versus H526-wt SCLC cells. The description is as above. The conditions noted are these: H526-GLI1 compared to H526-wt. As to the method:
Methods. Two SCLC cell lines, H69 and H526, were transduced with a GLI1 over-expressing (o/e) vector (Kasper et al, 2007) to create two lines expressing the gene: H69-GLI1 and H526-GLI1. GLI1 expression was verified by qRT-PCR. Cellular proliferation was measured over a 96-hour period. To study the drug dose response, GLI1 o/e and parental lines were treated with single-agent or combination dosing of cisplatin and etoposide, and cell viability was assessed after 72 hours. Relative GLI1 expression was compared with cisplatin response in four additional SCLC cell lines (H146, […], […]). Gene expression analysis was performed on H69-GLI1 and H69 parental cells, with two replicates for each, using Agilent (Agilent Technologies, Santa Clara, Calif.) 44K expression arrays. Data was normalized and analyzed using Genespring software (Agilent Technologies, Santa Clara, Calif.).

Setting [4] is: single agent, experiment H69-GLI1 and H69-GLI2 versus H69-wt (FIG. 1A/1B), viability after 72 hours.

Consider `N.N.[Cl][Pt][Cl]` [cisplatin, cis-diamminedichloroplatinum(II)], for which the “fold change between H69-GLI2 and H69-wt in drug-dose response” value in test [1] is reported as 1.21 fold. In addition, the “shift in cisplatin resistance” value in test [2] (H69-GLI1 compared to H69-wt, drug dose response, FIG. 1) is reported as ≥ 1.5 fold. Moreover, the “fold change between H69-GLI1 and H69-wt in drug-dose response” value in test [2] (experiment H69-GLI1 versus H69-wt only (FIG. 1C)) is given as 2.77 fold; in test [2] (setting [4]) it was 1.76 fold. The “change in cisplatin resistance” value in test [3] was “no significant change”.
Consider `COc1cc([C@@H]2c3cc4c(cc3[C@@H](O[C@@H]3O[C@@H]5CO[C@@H](C)O[C@H]5[C@H](O)[C@H]3O)[C@H]3COC(=O)[C@H]23)OCO4)cc(OC)c1O` [etoposide], for which the “fold change between H69-GLI2 and H69-wt in drug-dose response” value in test [1] is given as 1.76 fold. Also, in test [2] (setting [4]), the “fold change between H69-GLI1 and H69-wt in drug-dose response” value is 4.55 fold.
